From US6355799B1, “Substituted benzene compounds, process for their preparation, and herbicidal and defoliant compositions containing them” (ISK Americas Incorporated, priority 1997, dated 2002)

What was measured:
Assay type in all cases: in vivo
[1] = test system: upland rice (Oryza sp., var. Tebonnet, RICE); test: Post-emerge test, crop safety; conditions: post-emerge, 14 days after application, rating scale 0-100
How it was run: (§1)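 Herbicidal damage is scored 0 (none) to 100 (complete plant death) two weeks after a simulated field spray. Rates span 15–1000 g ai/ha, delivered in acetone at 187 l/ha. For post-emergence treatments, plants have 2–3 leaves and the spray carries 0.25% v/v non-ionic surfactant.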

[2] = test system: field corn (Zea mays L., var. Dekalb 535, CORN); test: Post-emerge test, crop safety; conditions: post-emerge, 14 days after application, rating scale 0-100
How it was run: as §1

[3] = test system: large crabgrass (Digitaria sanguinalis, DIGSA); test: Pre-emerge test, greenhouse herbicide activity screening; conditions: pre-emerge, 14 days after application, rating scale 0-100
How it was run: as §1

[4] = test system: barnyardgrass (Echinochloa crus-galli, ECHCG); test: as above; conditions: pre-emerge, 14 days after application, rating scale 0-100
How it was run: as §1

[5] = test system: johnsongrass (Sorghum halepense, SORHA); test: as above; conditions: pre-emerge, 14 days after application, rating scale 0-100
How it was run: as §1

[6] = test system: common ragweed (Ambrosia artemisizfolia L., AMBEL); test: as above; conditions: pre-emerge, 14 days after application, rating scale 0-100
How it was run: as §1

[7] = test system: velvetleaf (Abutilon theophrasti, ABUTH); test: as above; conditions: pre-emerge, 14 days after application, rating scale 0-100
How it was run: as §1

[8] = test system: sicklepod (Cassia obtusifolia, CASOB); test: as above; conditions: pre-emerge, 14 days after application, rating scale 0-100
How it was run: as §1

[9] = test system: ivyleaf morningglory (Ipomoea hederacea, IPOHE); test: as above; conditions: pre-emerge, 14 days after application, rating scale 0-100
How it was run: as §1

[10] = test system: green foxtail (Setaria viridis, SETVI); test: as above; conditions: pre-emerge, 14 days after application, rating scale 0-100
How it was run: as §1

[11] = test system: lambsquarters (Chenopodium album, CHEAL); test: as above; conditions: pre-emerge, 14 days after application, rating scale 0-100
How it was run: as §1

[12] = test system: redroot pigweed (Amaranthus retroflexus, AMARE); test: as above; conditions: pre-emerge, 14 days after application, rating scale 0-100
How it was run: as §1

[13] = test system: upland rice (Oryza sp., var. Tebonnet, RICE); test: Pre-emerge test, crop safety; conditions: pre-emerge, 14 days after application, rating scale 0-100
How it was run: (§2)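 Fourteen days after spraying, crop and weed injury was graded visually from 0, no effect, to 100, every plant dead. Test substances were dissolved in acetone and applied at 15–1000 g ai/ha with a flat-fan nozzle. Application was either pre-emergence, one day after sowing, or post-emergence at the 2–3 leaf stage.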

[14] = test system: field corn (Zea mays L., var. Dekalb 535, CORN); test: Pre-emerge test, crop safety; conditions: pre-emerge, 14 days after application, rating scale 0-100
How it was run: as §2

[15] = test system: large crabgrass (Digitaria sanguinalis, DIGSA); test: Post-emerge test, greenhouse herbicide activity screening; conditions: post-emerge, 14 days after application, rating scale 0-100
How it was run: (§3)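 Compounds in acetone were track-sprayed at 15–1000 g ai/ha: pre-emergence onto soil sown the previous day, then top-watered to incorporate and later bottom-watered; post-emergence onto 2–3 leaf plants with 0.25% v/v surfactant, bottom-watered only. Ratings on a 0–100 phytotoxicity scale were taken at day 14.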

[16] = test system: barnyardgrass (Echinochloa crus-galli, ECHCG); test: as above; conditions: post-emerge, 14 days after application, rating scale 0-100
How it was run: as §3

[17] = test system: johnsongrass (Sorghum halepense, SORHA); test: as above; conditions: post-emerge, 14 days after application, rating scale 0-100
How it was run: as §3

[18] = test system: velvetleaf (Abutilon theophrasti, ABUTH); test: as above; conditions: post-emerge, 14 days after application, rating scale 0-100
How it was run: as §3

[19] = test system: sicklepod (Cassia obtusifolia, CASOB); test: as above; conditions: post-emerge, 14 days after application, rating scale 0-100
How it was run: as §3

[20] = test system: ivyleaf morningglory (Ipomoea hederacea, IPOHE); test: as above; conditions: post-emerge, 14 days after application, rating scale 0-100
How it was run: as §3

[21] = test system: redroot pigweed (Amaranthus retroflexus, AMARE); test: as above; conditions: post-emerge, 14 days after application
How it was run: as §3

[22] = test system: green foxtail (Setaria viridis, SETVI); test: as above; conditions: post-emerge, 14 days after application, rating scale 0-100
How it was run: as §3

[23] = test system: lambsquarters (Chenopodium album, CHEAL); test: as above; conditions: post-emerge, 14 days after application, rating scale 0-100
How it was run: as §3

[24] = 63 g ai/ha, rating scale 0-100 (0 no damage, 100 complete death)
[25] = 250 g ai/ha, rating scale 0-100

C=CC=NNc1c(OC)c(Cl)cc(F)c1-n1c(=O)cc(C(F)(F)F)n(C)c1=O [15-10]
99: phytotoxicity rating ECHCG ([4]; 63 g ai/ha)
100: phytotoxicity rating DIGSA ([3]; 63 g ai/ha) | phytotoxicity rating DIGSA ([3]; 250 g ai/ha) | phytotoxicity rating ECHCG ([4]; 250 g ai/ha) | phytotoxicity rating SORHA ([5]; 63 g ai/ha) | phytotoxicity rating SORHA ([5]; 250 g ai/ha) | phytotoxicity rating AMBEL ([6]; 63 g ai/ha) | phytotoxicity rating AMBEL ([6]; 250 g ai/ha) | phytotoxicity rating ABUTH ([7]; 63 g ai/ha) | phytotoxicity rating ABUTH ([7]; 250 g ai/ha) | phytotoxicity rating CASOB ([8]; 250 g ai/ha) | phytotoxicity rating IPOHE ([9]; 63 g ai/ha) | phytotoxicity rating IPOHE ([9]; 250 g ai/ha) | phytotoxicity rating SETVI ([10]; 63 g ai/ha) | phytotoxicity rating SETVI ([10]; 250 g ai/ha) | phytotoxicity rating CHEAL ([11]; 63 g ai/ha) | phytotoxicity rating CHEAL ([11]; 250 g ai/ha) | phytotoxicity rating AMARE ([12]; 63 g ai/ha) | phytotoxicity rating AMARE ([12]; 250 g ai/ha) | phytotoxicity rating RICE ([13]; 250 g ai/ha) | phytotoxicity rating CORN ([14]; 250 g ai/ha) | Post-emerge Herbicidal Activity ABUTH (phytotoxicity rating) ([18]; 63 g ai/ha) | Post-emerge Herbicidal Activity ABUTH (phytotoxicity rating) ([18]; 250 g ai/ha) | Post-emerge Herbicidal Activity CASOB (phytotoxicity rating) ([19]; 63 g ai/ha) | Post-emerge Herbicidal Activity CASOB (phytotoxicity rating) ([19]; 250 g ai/ha) | Post-emerge Herbicidal Activity IPOHE (phytotoxicity rating) ([20]; 63 g ai/ha) | Post-emerge Herbicidal Activity IPOHE (phytotoxicity rating) ([20]; 250 g ai/ha) | Post-emerge Herbicidal Activity AMARE (phytotoxicity rating) [21, 24] | Post-emerge Herbicidal Activity AMARE (phytotoxicity rating) [21, 25] | Post-emerge Herbicidal Activity CHEAL (phytotoxicity rating) ([23]; 63 g ai/ha) | Post-emerge Herbicidal Activity CHEAL (phytotoxicity rating) ([23]; 250 g ai/ha)
30: Post-emerge Herbicidal Activity SORHA (phytotoxicity rating) ([17]; 63 g ai/ha) | Post-emerge Herbicidal Activity SETVI (phytotoxicity rating) ([22]; 63 g ai/ha)
75: phytotoxicity rating CORN ([14]; 63 g ai/ha) | Post-emerge Herbicidal Activity SETVI (phytotoxicity rating) ([22]; 250 g ai/ha)
45: Post-emerge Herbicidal Activity CORN (crop damage rating) ([2]; 63 g ai/ha)
70: Post-emerge Herbicidal Activity SORHA (phytotoxicity rating) ([17]; 250 g ai/ha)
10: Post-emerge Herbicidal Activity ECHCG (phytotoxicity rating) ([16]; 63 g ai/ha)
65: Post-emerge Herbicidal Activity CORN (crop damage rating) ([2]; 250 g ai/ha)
90: Post-emerge Herbicidal Activity DIGSA (phytotoxicity rating) ([15]; 250 g ai/ha)
50: Post-emerge Herbicidal Activity RICE (crop damage rating) ([1]; 63 g ai/ha)
60: Post-emerge Herbicidal Activity DIGSA (phytotoxicity rating) ([15]; 63 g ai/ha)
80: Post-emerge Herbicidal Activity RICE (crop damage rating) ([1]; 250 g ai/ha) | phytotoxicity rating CASOB ([8]; 63 g ai/ha) | phytotoxicity rating RICE ([13]; 63 g ai/ha) | Post-emerge Herbicidal Activity ECHCG (phytotoxicity rating) ([16]; 250 g ai/ha)

COc1c(Cl)cc(F)c(-n2c(=O)cc(C(F)(F)F)n(C)c2=O)c1NNC(=O)c1ccccc1 [15-3]
95: phytotoxicity rating RICE ([13]; 63 g ai/ha) | Post-emerge Herbicidal Activity IPOHE (phytotoxicity rating) ([20]; 63 g ai/ha) | Post-emerge Herbicidal Activity AMARE (phytotoxicity rating) [21, 24] | Post-emerge Herbicidal Activity CHEAL (phytotoxicity rating) ([23]; 63 g ai/ha)
100: phytotoxicity rating DIGSA ([3]; 63 g ai/ha) | phytotoxicity rating DIGSA ([3]; 250 g ai/ha) | phytotoxicity rating ECHCG ([4]; 63 g ai/ha) | phytotoxicity rating ECHCG ([4]; 250 g ai/ha) | phytotoxicity rating SORHA ([5]; 63 g ai/ha) | phytotoxicity rating SORHA ([5]; 250 g ai/ha) | phytotoxicity rating AMBEL ([6]; 63 g ai/ha) | phytotoxicity rating AMBEL ([6]; 250 g ai/ha) | phytotoxicity rating ABUTH ([7]; 63 g ai/ha) | phytotoxicity rating ABUTH ([7]; 250 g ai/ha) | phytotoxicity rating CASOB ([8]; 63 g ai/ha) | phytotoxicity rating CASOB ([8]; 250 g ai/ha) | phytotoxicity rating IPOHE ([9]; 63 g ai/ha) | phytotoxicity rating IPOHE ([9]; 250 g ai/ha) | phytotoxicity rating SETVI ([10]; 63 g ai/ha) | phytotoxicity rating SETVI ([10]; 250 g ai/ha) | phytotoxicity rating CHEAL ([11]; 63 g ai/ha) | phytotoxicity rating CHEAL ([11]; 250 g ai/ha) | phytotoxicity rating AMARE ([12]; 63 g ai/ha) | phytotoxicity rating AMARE ([12]; 250 g ai/ha) | phytotoxicity rating RICE ([13]; 250 g ai/ha) | phytotoxicity rating CORN ([14]; 250 g ai/ha) | Post-emerge Herbicidal Activity ABUTH (phytotoxicity rating) ([18]; 63 g ai/ha) | Post-emerge Herbicidal Activity ABUTH (phytotoxicity rating) ([18]; 250 g ai/ha) | Post-emerge Herbicidal Activity CASOB (phytotoxicity rating) ([19]; 250 g ai/ha) | Post-emerge Herbicidal Activity IPOHE (phytotoxicity rating) ([20]; 250 g ai/ha) | Post-emerge Herbicidal Activity AMARE (phytotoxicity rating) [21, 25] | Post-emerge Herbicidal Activity CHEAL (phytotoxicity rating) ([23]; 250 g ai/ha)
30: Post-emerge Herbicidal Activity SETVI (phytotoxicity rating) ([22]; 63 g ai/ha)
20: Post-emerge Herbicidal Activity DIGSA (phytotoxicity rating) ([15]; 63 g ai/ha)
10: Post-emerge Herbicidal Activity ECHCG (phytotoxicity rating) ([16]; 63 g ai/ha)
90: Post-emerge Herbicidal Activity RICE (crop damage rating) ([1]; 250 g ai/ha) | phytotoxicity rating CORN ([14]; 63 g ai/ha) | Post-emerge Herbicidal Activity ECHCG (phytotoxicity rating) ([16]; 250 g ai/ha) | Post-emerge Herbicidal Activity SORHA (phytotoxicity rating) ([17]; 250 g ai/ha)
0: Post-emerge Herbicidal Activity SORHA (phytotoxicity rating) ([17]; 63 g ai/ha)
70: Post-emerge Herbicidal Activity CASOB (phytotoxicity rating) ([19]; 63 g ai/ha)
25: Post-emerge Herbicidal Activity CORN (crop damage rating) ([2]; 63 g ai/ha)
50: Post-emerge Herbicidal Activity RICE (crop damage rating) ([1]; 63 g ai/ha)
80: Post-emerge Herbicidal Activity CORN (crop damage rating) ([2]; 250 g ai/ha) | Post-emerge Herbicidal Activity DIGSA (phytotoxicity rating) ([15]; 250 g ai/ha) | Post-emerge Herbicidal Activity SETVI (phytotoxicity rating) ([22]; 250 g ai/ha)
